In the test the test system is HeLa cells, 3H-mannose incorporation into glycoproteins. Put plainly: 3H-mannose glycoprotein labeling increase in HeLa – HeLa cells, orthogonal assay for PMI inhibitor project, late-stage follow-up (AID 1553).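 Note: 1 fold = DMSO treated HeLa control cells; higher fold signals phosphomannose isomerase inhibition routing mannose into glycosylation.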
The mark [1] stands for this setting: fold increase, at 25 µM, stronger effect = higher value.

Activity calls are given as the source filed them.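 Rule for the calls: active = compounds graded as giving a low, moderate or strong rise in tritium labelling of cell protein versus solvent control; inactive = the rest.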

`Cc1ccc(C)c(-n2[nH]c3ccccc3c2=O)c1`: the fold increase 3H incorporation is, setting by setting: (at 100 µM) 0.8 (inactive); under setting [1], 0.9.

As to `CN(C)c1ccc(N=c2ssnc2Cl)cc1`, the fold increase 3H incorporation by setting is: (at 100 µM) 1 (inactive); under setting [1], 0.8.

On to `S=c1nc(-c2ccccc2Br)[nH][nH]1`, for which, where the note is “at 100 µM”, the fold increase 3H incorporation is 0.9 (inactive).

Turning to `N#Cc1ccc(N=c2ssnc2Cl)cc1`, the fold increase 3H incorporation reads like this: (at 100 µM) 1.1 (inactive); under setting [1], 1.

Regarding `CC(C)(C)c1ccc(N=c2ssnc2Cl)cc1`, the fold increase 3H incorporation is, setting by setting: (at 100 µM) 1 (inactive); under setting [1], 0.7.

In the case of `O=c1c2ccccc2sn1-c1ccccc1`, the fold increase 3H incorporation runs as follows: (at 100 µM) 1; under setting [1], 1.1.

Regarding `Cc1ccc(N=c2ssnc2Cl)cc1C`, the fold increase 3H incorporation (at 100 µM) was 0.8 (inactive) and the fold increase 3H incorporation under setting [1] was 0.8.

On to `S=c1nc(C2COc3ccccc3O2)[nH][nH]1` (stereo not given), for which the fold increase 3H incorporation (at 100 µM) is 0.8 (inactive).

`O=c1c2c([N+](=O)[O-])cc([N+](=O)[O-])cc2sn1-c1ccc(F)cc1`: the fold increase 3H incorporation by setting is: (at 100 µM) 0.8 (inactive); under setting [1], 0.9.

`Clc1ccc(Nc2ccccc2N=c2ssnc2Cl)cc1`: the fold increase 3H incorporation is, setting by setting: (at 100 µM) 0.4 (inactive); under setting [1], 0.3.

Consider `CCOc1ccc(-c2nc(=S)[nH][nH]2)cc1`, for which the fold increase 3H incorporation (at 100 µM) is 0.7 (inactive).

Regarding `Cc1ccc(N=c2ssnc2Cl)nc1`, the fold increase 3H incorporation (at 100 µM) was 0 and the fold increase 3H incorporation under setting [1] was found to be 1.2.

As to `COc1ccc(OC)c(N=c2ssnc2Cl)c1`, the fold increase 3H incorporation runs as follows: (at 100 µM) 1.7; under setting [1], 2.5.

`Cc1ccc(N=c2ssnc2Cl)cc1[N+](=O)[O-]`: the fold increase 3H incorporation is 0.2 (at 100 µM) and 2.1 under setting [1].
